Test [1] relates to Jurkat. Put plainly: Antiproliferative activity against human Jurkat cells by MTT assay. The class given is functional, cell-based. For orientation: Formazan colour is commonly taken as a measure of viable cells.
In test [2] the test system is U-937. Put plainly: Antiproliferative activity against human U937 cells by MTT assay. Type of test: functional, cell-based.
For test [3], the system named is U-937. As to the kind of experiment: Induction of apoptosis in human U937 cells after 24 to 48 hrs by annexin V/propidium iodide staining based flow cytometry. Type of test: functional. Background: A flow cytometer gives signals particle by particle.
The test system of test [4] is L1210. As to the kind of experiment: Cytotoxicity against mouse L1210 cells. The class given is functional, cell-based.
Test [5] concerns KB. Put plainly: Cytotoxicity against human KB cells. Type of test: functional, cell-based.
Test [6] concerns HeLa. Put plainly: Cytotoxicity against human HeLa cells. Type of test: functional, cell-based.
The target in test [7] is T1, Adenosine receptor A1 (Homo sapiens) (UniProt P30542).
T1 sequence (whole entry): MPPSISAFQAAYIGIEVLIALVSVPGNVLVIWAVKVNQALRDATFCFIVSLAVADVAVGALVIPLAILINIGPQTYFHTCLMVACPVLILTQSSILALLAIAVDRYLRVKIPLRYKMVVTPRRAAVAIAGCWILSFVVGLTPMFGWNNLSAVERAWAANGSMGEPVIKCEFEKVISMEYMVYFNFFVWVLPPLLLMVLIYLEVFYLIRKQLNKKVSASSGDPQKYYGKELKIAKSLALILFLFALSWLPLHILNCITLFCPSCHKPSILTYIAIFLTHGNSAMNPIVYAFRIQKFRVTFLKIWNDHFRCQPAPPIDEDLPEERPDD
As to the kind of experiment: Displacement of [3H]DPCPX from adenosine A1 receptor in human HeLa cells at 100 uM by whole cell binding assay. The class given is cell-based.

Test [8] concerns P388. As to the kind of experiment: Cytotoxicity against mouse P388 cells. The class given is functional, cell-based.

The pIC50 is −log10 of the IC50, conventionally taken in molar units. High values mean a small IC50, low ones a large IC50. Broadly, the IC50 is the concentration needed to halve the response being measured. The low end stands for inhibition by little substance, the high end for a need for much substance. As usually defined, the pEC50 is −log10 of the EC50, conventionally taken in molar units. A high value points to a low EC50. What is called inhibition is how much of the control response was suppressed. The low end stands for a weak effect, the high end for a strong effect.

pEC50, pIC50: −log10 of the molar value. Converted amounts (≈) assume the structure as drawn.

In the case of `COC1=C(Br)[C@H](O)[C@@]2(C=C1Br)CC(C(=O)NCC(O)COc1c(Br)cc(C(O)CNC(=O)C3=NO[C@]4(C=C(Br)C(OC)=C(Br)[C@@H]4O)C3)cc1Br)=NO2` (stereo not given in full), the pIC50 in test [1] and in test [2] was 5.13 each time. The same molecule had an Activity in test [3] of 35%.
Regarding `COC1=C(Br)[C@H](O)[C@@]2(C=C1Br)CC(C(=O)NCCc1c(Br)cc(OCCCN(C)C)cc1Br)=NO2` [PUREALIDIN Q], the half-maximal inhibitory concentration (IC50) in test [4] was determined as 0.95 µg/mL (≈ 1.27 µM); in test [5], 1.2 µg/mL (≈ 1.61 µM).
In turn, `COC1=C(Br)[C@H](O)[C@@]2(C=C1Br)CC(C(=O)NCCCCNC(=O)C1=NO[C@]3(C=C(Br)C(OC)=C(Br)[C@@H]3O)C1)=NO2` [AEROTHIONIN] had a pEC50 in test [6] of 4.38.
On to `COC1=C(Br)[C@H](O)[C@@]2(C=C1Br)CC(C(=O)NCCCOc1c(Br)cc(C(O)CNC(=O)C3=NO[C@]4(C=C(Br)C(OC)=C(Br)[C@@H]4O)C3)cc1Br)=NO2` (stereo not given in full), for which the negative-log IC50 (pIC50) in test [1] and in test [2] was 5.09 throughout. In test [3], this molecule displayed an Activity of 35%.
`COC1=C(Br)[C@H](O)[C@@]2(C=C1Br)CC(C(=O)NCCCOc1c(Br)cc(CCNS(=O)(=O)O)cc1Br)=NO2` yielded an inhibition in test [7] of 61%. Further, the pEC50 in test [6] is 4.22.
As for `COC1=C(Br)[C@H](O)[C@@]2(C=C1Br)CC(C(=O)NCCCOc1c(Br)cc(CCN(C)C)cc1Br)=NO2`, the IC50 is 2.8 µg/mL (≈ 3.76 µM) in test [4] and 7.6 µg/mL (≈ 10.2 µM) in test [5].
`COC1=C(Br)C[C@]2(OC=C1Br)ON=C(C(=O)NCCCOc1c(Br)cc(CCNC=C3C(=O)C=CC3=O)cc1Br)[C@@H]2O` (relative stereo) returned a 50% inhibitory concentration (IC50) in test [8] of 2.1 µg/mL (≈ 2.5 µM).
The molecule `COC1=C(Br)[C@H](O)[C@@]2(C=C1Br)CC(C(=O)NCCCOc1c(Br)cc(CCNC(=O)C3=NO[C@]4(C=C(Br)C(OC)=C(Br)[C@@H]4O)C3)cc1Br)=NO2` showed a negative-log EC50 (pEC50) in test [6] of 5.59.

Source of the values: ChEMBL document CHEMBL3232741, “Isoxazoline containing natural products as anticancer agents: a review” (Eur J Med Chem, 2014).
